Assay results as given in patent US9175036B2, “Antimicrobial water treatment membranes and production thereof” (BEN-GURION UNVERSITY OF THE NEGEV RESEARCH AND DEVELOPMENT …, priority 2009, dated 2015).
Values after ≈ are worked out from the molar mass of the structure shown. Read-outs that look alike come from different tables or passages of the source. One block for each compound: values may come before it. Square brackets hold non-standard residues; d marks the D form. Peptide text beside a SMILES is read from it. βAla = NCCC(=O)O

Experiments:
Enterobacter = type: cell-based
Experimental: The IC50 is determined by an essay, suitable for the specific film-forming microorganism in question. For example, in the present invention, the Enterobacter assay, which is described in detail in the methods section below, was used to determine the antimicrobial activities of the tested peptides.
Quantitative Biofilm Growth Inhibition Assay in a 96-Wells Microtiter Plate:
Enterobacter culture (50 ml) was grown in tryptic soy broth media (TBS; prepared according to manufacturer instructions) overnight at 25° C. On the next day the turbidity of the culture was measured at 600 nm (Biomate 5 UV-Vis spectrophotometer, Thermo Fisher Scientific, Waltham, Mass.) and, if necessary, TSB was added to dilute the culture until the OD was 1.
Then 96 wells polystyrene microtiter plates (flat bottom, transparent, Becton Dickinson, Franklin Lakes, New-Jersey) were filled as following: Negative control wells (without bacteria) were filled with 125 μl TSB media and 25 μl of DDW:PBS1:1 buffer solution; Positive control wells (without peptide solution) were filled with 110 μl TSB media, 25 μl of DDW:PBS1:1 buffer solution and 15 μl of Enterobacter culture solution; Wells that contained AMPs at different concentrations were filled with 110 μl TSB media, 25 μl of peptide solution and 15 μl of Enterobacter culture solution.
The plates were incubated at 25° C. overnight. On the next day the plates were gently rinsed 5 times with distilled water to remove the planktonic bacteria and then dried at room temperature for 10 minutes. Then the biofilm on the walls of the wells was dyed by adding 200 μl, of 3% crystal violet (CV) to the wells. After 15 minutes at room temperature, the plates were gently rinsed 5 times with distilled water to remove excess dye and dried at room temperature for 10 minutes (Djordjevic, Wiedmann & McLandsborough 2002). The dry plates were filled with 200 μl ethanol, covered and gently agitated (Duomax 1030 rocking platform shaker, Heidolph, Kelheim, Germany) for 1 hour. The absorbance of extracted color was measured in a plate reading spectrophotometer (Infinite M200, Tecan, Mannedorf, Switzerland) at 595 nm.
The effect of linking the arm to a peptide, on the antimicrobial activity of the peptides was assessed by measuring the peptide activity in 96-microtitter plates in solution and comparing to activities of the normal peptides. Experiments were performed in water and in 3% NaCl solution. Table 6 presents the antimicrobial activity (IC50) of peptide-arm systems, in water and in 3% NaCl solution. Values were extracted from dose-response curves.
Different concentration solutions of peptides, bought or prepared as detailed in the methods section above, were prepared by diluting a stock solution with 1% ACN. Stock solution was prepared by dissolving water soluble peptides in DDW:PBS1:1. PBS (pH=7.4) was prepared by adding to 800 ml DDW, 8 grams NaCl, 0.2 grams KCl, 1.44 grams Na2HPO4 and 0.2 grams KH2PO4.
To evaluate whether attachment of a tether to the AMPs has an effect on the inhibitory potency, a PEGylated peptide (HS-PEG-D-Modelin-1) was prepared, and its inhibitory potency compared to that of the ‘normal’ peptide All-D-Modelin-1. Peptides were diluted in 2-fold serial dilutions, and the antibacterial activity of the peptides was determined in sterile 96-multititter plates.

[1] = test system: proteolytic enzymes (trypsin, chymotrypsin, pronase E); type: in vitro ADME
Experimental: Resistance to proteolysis can be determined according to trypsin, chymotrypsin or pronase E assay, as detailed below in the Methods section, namely by adding to each 90 μl of peptide solution, 10 μl of enzyme solution, containing either a mixture of 0.5 μg trypsin (0.05 mg/ml) and 0.5 μg chymotrypsin (0.05 mg/ml) or 4 μg pronase E (0.4 mg/ml) in 0.001M HCl. The enzymatic degradation of the peptide is monitored at controlled temperature of 25° C. A peptide can be considered to be resistant to proteolysis if it withstands this assay for at least 1 week, maintaining at least 90% of its initial concentration after this period.
(§1) Proteolytic Stability Assay of Peptides:
Stock solution (0.56 mg/ml) of each peptide was prepared by dissolving the peptide in PBS (pH=7.4). […] The enzymatic degradation of the peptide was monitored at controlled temperature of 25° C. by RP-HPLC with detection at 220 nm using Phenomenex C18 4.6×250 mm column with 5 μm particle size and 110 Å pore size. […]
Enzymes concentrations were determined by preliminary experiment that was performed to screen for concentrations allowing complete degradation of C-Modelin-1 within 1-2 hours. 10 μl of enzyme solution with varying concentrations were added to 90 μl of peptide solution (0.56 mg/ml) and enzymatic degradation of the peptide was monitored by RP-HPLC. […]

pronase E = type: in vitro ADME
Experimental: as §1
Stock solution (0.56 mg/ml) of each peptide was prepared by dissolving the peptide in PBS (pH=7.4). To each 90 μl of peptide solution 10 μl of enzyme solution, containing either a mixture of 0.5 μg trypsin (0.05 mg/ml) and 0.5 μg chymotrypsin (0.05 mg/ml) or 4 μg pronase E (0.4 mg/ml) in 0.001M HCl, was added. The enzymatic degradation of the peptide was monitored at controlled temperature of 25° C. by RP-HPLC with detection at 220 nm using Phenomenex C18 4.6×250 mm column with 5 μm particle size and 110 Å pore size. Elution gradient was: t=0 minutes, B=15%; t=5 minutes, B=15%; t=40 minutes, B=70%; t=42 minutes, B=95%; t=52 minutes, B=95% (flow rate 1 ml/minute).
Enzymes concentrations were determined by preliminary experiment that was performed to screen for concentrations allowing complete degradation of C-Modelin-1 within 1-2 hours. 10 μl of enzyme solution with varying concentrations were added to 90 μl of peptide solution (0.56 mg/ml) and enzymatic degradation of the peptide was monitored by RP-HPLC.
The enzymatic degradation was monitored at a fixed temperature of 25° C. by RP-HPLC at 220 nm, as described before. Elution gradient started with 85% A/15% B for 5 minutes continued with 30% A/70% B for 35 minutes and ended with 5% A-95% B for 12 minutes.
All the enzymes were used in concentrations allowing complete degradation of C-Modelin-1 within […].

biofilm = assay: Confocal microscope analysis of biofilm developed on modified RO membranes; type: cell-based; conditions: biofilm on RO membrane modified with the peptide
Experimental: b) Quantitative Measurements:
For biofilm growth measurements, modified membranes were tested in static conditions and in a flow-through system.
For static conditions membranes were glued with RTV 186 glue to a 1 cm×1 cm glass slides and were incubated in 24-wells plate, containing Green fluorescent protein (GFP) expressing Pseudomonas aeruginosa culture, for 18 hours (37° C.). Then, the membranes were washed with DDW to remove planktonic bacteria and the formed biofilm was detected by Leica DM 2500 confocal laser scanning microscope (CLSM, Wetzlar, Germany).
For the flow-through system, 1 cm×1 cm membranes were glued to a 2.6 cm×7.6 cm glass slide and the slide was placed in a flow cell. First, GFP expressing Pseudomonas aeruginosa was introduced to the cell and incubated for 1 hour. Then, the planktonic bacteria were washed out and sterile growth media was brought in to the cell with 50 ml/h flow rate. After 24 hours the sample was removed from the cell and biofilm fluorescence was detected by confocal laser scanning microscope. The dyed membranes were analyzed by a confocal laser scanning microscope.
Quantitative and qualitative indications for biofilm formation on modified vs. non modified RO membranes were checked.
The results of the confocal microscope analysis of the biofilm that developed on the different membranes showing reduced biofilm formation on the modified membranes are summarized in Table 15.

Compound: N=C(N)NCCC[C@H](NC(=O)CNC(=O)CNC(=O)CNC(=O)[C@@H](N)CS)C(=O)N[C@@H](CCCNC(=N)N)C(=O)N[C@@H](Cc1c[nH]c2ccccc12)C(=O)N[C@@H](Cc1c[nH]c2ccccc12)C(=O)N[C@@H](CCCNC(=N)N)C(=O)N[C@@H](Cc1ccccc1)C(N)=O [CG3-Hexapeptide-4, CGGGRRWWRF-NH2] (H-CGGGRRWWRF-NH2; N-terminus assumed)
IC50 Normal conditions (Enterobacter): 160 µg/mL (≈ 125 µM) | IC50 in 3% Aqueous NaCl (Enterobacter): 150 µg/mL (≈ 117 µM) | Biovolume (biofilm): 8.9 * 10^4 μm^3 | Thickness (biofilm): 9.5 μm

Compound: CC(C)C[C@H](NC(=O)[C@H](CCCCN)NC(=O)CNC(=O)CNC(=O)CNC(=O)CNC(=O)[C@@H](N)CS)C(=O)N[C@@H](Cc1c[nH]c2ccccc12)C(=O)N[C@@H](CCCCN)C(=O)N[C@@H](CCCCN)C(=O)N[C@@H](Cc1c[nH]c2ccccc12)C(=O)N[C@@H](C)C(=O)N[C@@H](CCCCN)C(=O)N[C@@H](CCCCN)C(=O)N[C@@H](Cc1c[nH]c2ccccc12)C(=O)N[C@@H](CC(C)C)C(=O)N[C@@H](CCCCN)C(=O)N[C@@H](CC(C)C)C(=O)N[C@@H](Cc1c[nH]c2ccccc12)C(=O)N[C@@H](CCCCN)C(=O)N[C@@H](C)C(=O)N[C@@H](Cc1c[nH]c2ccccc12)C(=O)O [CG4-Modelin-1] (H-CGGGGKLWKKWAKKWLKLWKAW-OH; N-terminus assumed)
IC50 Normal conditions (Enterobacter): 100 µg/mL (≈ 37.6 µM) | Biovolume (biofilm): 9.3 * 10^4 μm^3 | Thickness (biofilm): 9.5 μm

Compound: CC(C)C[C@H](NC(=O)[C@H](CCCCN)NC(=O)[C@H](Cc1ccccc1)NC(=O)[C@H](CC(C)C)NC(=O)[C@H](CC(C)C)NC(=O)CNC(=O)[C@H](CCCCN)NC(=O)[C@H](CC(C)C)NC(=O)[C@H](CCCCN)NC(=O)[C@@H]1CCCN1C(=O)[C@H](CC(C)C)NC(=O)[C@H](CC(C)C)NC(=O)[C@H](CC(C)C)NC(=O)[C@H](CCCCN)NC(=O)[C@H](CC(C)C)NC(=O)[C@H](CC(C)C)NC(=O)[C@H](CCCCN)NC(=O)[C@@H](N)Cc1ccc(O)cc1)C(N)=O [L^6P^9G^13F^16, reference compound] (H-YKLLKLLLPKLKGLLFKL-NH2; N-terminus and C-terminus assumed)
IC50 Normal conditions (Enterobacter): 40 µg/mL (≈ 18.7 µM) | IC50 in 3% Aqueous NaCl (Enterobacter): 300 µg/mL (≈ 140 µM)

Compound: CC(C)C[C@H](NC(=O)[C@H](CCCCN)NC(=O)[C@H](CC(C)C)NC(=O)[C@H](Cc1c[nH]c2ccccc12)NC(=O)[C@H](CCCCN)NC(=O)[C@H](CCCCN)NC(=O)[C@H](C)NC(=O)[C@H](Cc1c[nH]c2ccccc12)NC(=O)[C@H](CCCCN)NC(=O)[C@H](CCCCN)NC(=O)[C@H](Cc1c[nH]c2ccccc12)NC(=O)[C@H](CC(C)C)NC(=O)[C@@H](N)CCCCN)C(=O)N[C@@H](Cc1c[nH]c2ccccc12)C(=O)N[C@@H](CCCCN)C(=O)N[C@@H](C)C(=O)N[C@@H](Cc1c[nH]c2ccccc12)C(=O)O [Modelin-1, KLWKKWAKKWLKLWKAW, reference compound]
IC50 in 3% Aqueous NaCl (Enterobacter; peptide in solution, 3% NaCl solution, 96-microtitter plates, values extracted from dose-response curves): 100 µg/mL (≈ 43 µM) | IC50 Normal conditions (Enterobacter; peptide in solution, water, 96-microtitter plates, values extracted from dose-response curves): 20 µg/mL (≈ 8.59 µM)

Continued, in another order:

IC50 (Enterobacter): 10 µg/mL (≈ 4.11 µM) | higher stability compared with the unprotected Cys-Modelin-1 [1]: over 100 fold | remained stable when treated with the proteolytic enzymes [1]: over 2 weeks
Compound: CC(C)C[C@@H](NC(=O)[C@@H](CCCCN)NC(=O)[C@H](N)CS)C(=O)N[C@H](Cc1c[nH]c2ccccc12)C(=O)N[C@H](CCCCN)C(=O)N[C@H](CCCCN)C(=O)N[C@H](Cc1c[nH]c2ccccc12)C(=O)N[C@H](C)C(=O)N[C@H](CCCCN)C(=O)N[C@H](CCCCN)C(=O)N[C@H](Cc1c[nH]c2ccccc12)C(=O)N[C@H](CC(C)C)C(=O)N[C@H](CCCCN)C(=O)N[C@H](CC(C)C)C(=O)N[C@H](Cc1c[nH]c2ccccc12)C(=O)N[C@H](CCCCN)C(=O)N[C@H](C)C(=O)N[C@H](Cc1c[nH]c2ccccc12)C(=O)O [All-D C-Modelin-1, CKLWKKWAKKWLKLWKAW] (H-[dC][dK][dL][dW][dK][dK][dW][dA][dK][dK][dW][dL][dK][dL][dW][dK][dA][dW]-OH)

IC50 (Enterobacter): 4 µg/mL (≈ 1.6 µM) | digestion first detected after (pronase E): 5 min | peptides completely degraded after (pronase E): 135 min
Compound: CC(C)C[C@H](NC(=O)[C@H](CCCCN)NC(=O)[C@H](CC(C)C)NC(=O)[C@H](Cc1c[nH]c2ccccc12)NC(=O)[C@H](CCCCN)NC(=O)[C@H](CCCCN)NC(=O)[C@H](C)NC(=O)[C@H](Cc1c[nH]c2ccccc12)NC(=O)[C@H](CCCCN)NC(=O)[C@H](CCCCN)NC(=O)[C@H](Cc1c[nH]c2ccccc12)NC(=O)[C@H](CC(C)C)NC(=O)[C@H](CCCCN)NC(=O)[C@@H](N)CS)C(=O)N[C@@H](Cc1c[nH]c2ccccc12)C(=O)N[C@@H](CCCCN)C(=O)N[C@@H](C)C(=O)N[C@@H](Cc1c[nH]c2ccccc12)C(=O)NCCC(=O)O [C-Modelin-1-βAla, CKLWKKWAKKWLKLWKAW-βAla] (H-CKLWKKWAKKWLKLWKAW[βAla]-OH)

IC50 in 3% Aqueous NaCl (Enterobacter): 120 µg/mL (≈ 46.9 µM)
Compound: CC(C)C[C@H](NC(=O)[C@H](CCCCN)NC(=O)CNC(=O)CNC(=O)CNC(=O)CN)C(=O)N[C@@H](Cc1c[nH]c2ccccc12)C(=O)N[C@@H](CCCCN)C(=O)N[C@@H](CCCCN)C(=O)N[C@@H](Cc1c[nH]c2ccccc12)C(=O)N[C@@H](C)C(=O)N[C@@H](CCCCN)C(=O)N[C@@H](CCCCN)C(=O)N[C@@H](Cc1c[nH]c2ccccc12)C(=O)N[C@@H](CC(C)C)C(=O)N[C@@H](CCCCN)C(=O)N[C@@H](CC(C)C)C(=O)N[C@@H](Cc1c[nH]c2ccccc12)C(=O)N[C@@H](CCCCN)C(=O)N[C@@H](C)C(=O)N[C@@H](Cc1c[nH]c2ccccc12)C(=O)O [Peptide G4-Modelin-1] (H-GGGGKLWKKWAKKWLKLWKAW-OH; N-terminus and C-terminus assumed)
IC50 Normal conditions (Enterobacter): 70 µg/mL (≈ 27.4 µM)
